{
  "source": "patent US11427869B2",
  "about": "“T cell balance gene expression, compositions of matters and methods of use thereof” (THE BROAD INSTITUTE, INC., priority 2015, dated 2022)",
  "key": {"[1]": {"molecular_target": "T1, Rorγt (Mus musculus, UniProt P51450)", "T1 construct": "expressed in transfected cells; host or cells: EL4 cells stably transfected with Rorγt vector", "T1 sequence (P51450 1-495 isoform P51450-2)": "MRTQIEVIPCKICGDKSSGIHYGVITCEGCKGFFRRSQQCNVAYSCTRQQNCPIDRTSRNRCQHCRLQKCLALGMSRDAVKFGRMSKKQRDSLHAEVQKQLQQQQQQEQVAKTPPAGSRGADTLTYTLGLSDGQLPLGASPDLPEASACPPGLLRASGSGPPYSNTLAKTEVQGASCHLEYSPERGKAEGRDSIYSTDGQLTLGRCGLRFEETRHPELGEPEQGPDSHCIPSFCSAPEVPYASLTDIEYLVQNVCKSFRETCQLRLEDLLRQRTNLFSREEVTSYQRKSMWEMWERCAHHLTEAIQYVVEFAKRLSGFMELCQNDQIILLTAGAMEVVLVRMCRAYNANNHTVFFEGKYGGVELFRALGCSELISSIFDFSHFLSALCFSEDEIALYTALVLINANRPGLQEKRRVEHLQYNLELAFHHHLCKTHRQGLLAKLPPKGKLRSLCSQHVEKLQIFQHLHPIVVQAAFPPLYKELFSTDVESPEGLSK", "assay": "Dual luciferase reporter assay of Rorγt transcriptional activity in EL4 cells", "type": "cell-based", "details": "in the presence of an agonistic Rorγt ligand", "description": "Cells and supernatant were harvested at 96 hours and subjected to MS/LC. Three independent mouse experiments were performed. […] All ChIP and luciferase assay are representative of at least 3 independent experiments.\nThree independent experiments were performed."}, "[2]": {"tested_on": "Th17 cells", "assay": "qPCR of gene expression (cyp51, sc4mol, pathogenicity signature) in Th17 cells with exogenous fatty acid", "type": "cell-based, mouse"}, "[3]": {"molecular_target": "T1, Rorγt", "assay": "Rorγt ChIP-qPCR in Th17 cells", "type": "cell-based", "details": "WT Th17 cells, TGF-β1+IL-6 96h; 10 μM fatty acid added at day 0", "procedure": "(FIG. 18A, FIG. 18B) Rorγt ChIP-PCR analyses in WT and CD5L−/− Th17 cells. WT, CD5L−/− and Rorγt−/− Th17 cells were differentiated with TGF-1+IL-6 for 96h. Enrichment of Rorγt binding to genomic regions of Il17 (FIG. 18A) and Il10 (FIG. 18B) is measured using qPCR. […] Three independent experiments were performed."}, "[4]": {"tested_on": "Th17 cells", "assay": "Flow cytometry and intracellular cytokine staining of T cells", "type": "cell-based, mouse", "procedure": "WT, CD5L−/− and Rorγt−/− Th17 cells were differentiated with TGF-1+IL-6 for 96h. […] Three independent experiments were performed. […] (FIG. 18E) Naïve WT T cells were activated without polarizing cytokines (Th0) and infected with retrovirus expressing Rorγt in the presence of control-RV or CD5L-RV with or without FF-MAS (5 uM) as a source of Rorγt ligand. Each dot represents an independent infection. (FIG. 18F) WT or CD5L−/− naïve cells were differentiated with TGF-β1+IL-6. At 48h, cells were replated in fresh media with either control or FF-MAS (5 uM) as a source of Rorγt ligand. Cells were harvested for FACS analysis 72h later.\nT cell differentiation culture. Naïve CD4+CD44−CD62L+CD25− T cells or Effector memory CD4+CD44+CD62L− were sorted using BD FACSAria sorter and activated with plate-bound anti-CD3 and anti-CD28 antibodies (both at 2 μg/ml) in the presence of cytokines at a concentration of 2.5×10^5 cells/ml. For Th17 differentiation: 2 ng/ml of rhTGFβ1, 2 ng/ml of rhTGFβ3, 25 ng/ml rmIL-6, 20 ng/ml rmIL-18 (all from Miltenyi Biotec) and 20 ng/ml rmIL-23 (R & D systems) were used at various combinations as specified in figures. For Th1 differentiation, 20 ng/ml rmIL-12 (R & D systems); for Th2 differentiation 20 ng/ml rmIL-4 (Miltenyi Biotec); for iTreg differentiation, 2.5 ng/ml of rhTGFβ1 were used (Miltenyi Biotec). For differentiation experiments, cells were harvested at 48 hours. For restimulation experiments, cells were differentiated for 48 hours and resuspended in fresh media with no additional cytokines for 48-72 hours. Cells were re-stimulated with PMA/ionomycin for four hours before analysis for cytokines by intracellular cytokine staining. For experiments with exogenous fatty acid, fatty acids were purchased and resuspended first with serum-free media containing BSA prior being added to culture.\nFlow cytometry and intracellular cytokine staining. Sorted naïve T cells were stimulated with phorbol 12-myristate 13-acetate (PMA) (50 ng/ml, Sigma-aldrich), ionomycin (1 μg/ml, Sigma-aldrich) and a protein transport inhibitor containing monensin (Golgistop) (BD Biosciences) for 4 h before detection by staining with antibodies."}, "[5]": {"details": "mice fed with a diet rich in PUFA (Monk et al., 2012, 2013); cited from earlier work"}, "[6]": {"details": "Th17 cells differentiated with TGF-β1+IL-6"}},
  "data": [
    {"smiles": "CCCCC/C=C\\C/C=C\\C/C=C\\C/C=C\\CCCC(=O)O", "note": "[PUFA, arachidonic acid]", "values": [
      {"measurement": "Il10 transactivation", "setting": "[1]", "result": "enhanced Il10 transactivation"},
      {"measurement": "Rorγt-mediated Il23r transactivation", "setting": "[1]", "result": "inhibited Rorγt-mediated Il23r transactivation"},
      {"measurement": "expression of cyp51 and sc4mol mRNA", "setting": "[2]; CD5L−/− Th17 cells (TGF-β1+IL-6), fatty acid 25 uM added at 48h, analyzed at 96h", "result": "abolished the increased expression of the enzymes"},
      {"measurement": "Il22 expression (qPCR)", "setting": "[2]; [6]", "result": "increased"},
      {"measurement": "effector molecule expression of the pathogenicity signature (Il10, Il23r, Ccl5, Csf2, Lag3; qPCR)", "setting": "[2]; [6]", "result": "reciprocally regulated"},
      {"measurement": "Rorγt binding at Il17 and Il23r loci (ChIP-PCR)", "setting": "[3]", "result": "decreased such binding"},
      {"measurement": "Rorγt binding to the Il10 CNS-9 locus (ChIP-PCR)", "setting": "[3]", "result": "increased Rorγt binding to the Il10 CNS-9 locus"},
      {"measurement": "percentage of IL-17+CD4+ T cells", "setting": "[4]; CD5L−/− Th17 cells differentiated with TGF-β1+IL-6", "result": "reduced percentage of IL-17+CD4+ T cells"},
      {"measurement": "IL-17 and IL-23R expression", "setting": "[4]; WT Th17 cells differentiated with TGF-β1+IL-6 and expanded using IL-23 with fatty acid", "result": "suppressed IL-17 and IL-23R expression"},
      {"measurement": "severity of chronic colitis and Th17 cell polarization", "setting": "[5]", "result": "reduced severity of chronic colitis and Th17 cell polarization"}
    ]}
  ]
}
